The results in this text go back to patent US20110250290A1, “DISINFECTANT COMPOSITIONS” (priority 2006, published 2011).

In experiment [1] the test system is Pseudomonas syringae pv. phaseolicola HB-9 planktonic. In words: PspHB-9 planktonic susceptibility to Oxysilver and copper sulfate.
The test system of experiment [2] is Pseudomonas syringae pv. phaseolicola HB-9 biofilm. In words: PspHB-9 biofilm susceptibility to Oxysilver and copper sulfate.

Turning to `O=S(=O)([O-])[O-].[Cu+2]` [Copper sulfate], the “Bacteria growth PspHB-9 Planktonic, cell counts” value came out at 2.95 log10 in experiment [1] (1250 ppm), 0 log10 in experiment [1] (2900 ppm) and 0 log10 in experiment [1] (4600 ppm). The “Bacteria/biofilm growth PspHB-9 Biofilm, cell counts” value in experiment [2] (1250 ppm) is 5.15 log10; in experiment [2] (2900 ppm), 0 log10; in experiment [2] (4600 ppm) it was 0 log10. Also, the “concentration needed to be effective” value in experiment [2] (planktonic and biofilm PspHB-9) is given as “at least 11460 ppm”.
